Measured values published in patent US20090326014A1, “Use of 5-ht7 receptor agonists for the treatment of pain” (Laboratorios Del Dr. Esteve, S.A., priority 2006, published 2009).
Several values for one entry are separate records, joined by “and”; a condition that tells them apart may be missing. Equal values may be shown once. Entries after “also recorded” stand apart in the source; their conditions may differ. Read-outs that look alike come from different tables or passages of the source. Each block holds one molecule with its values, some of them ahead of it.

Assays:
h5-HT1F = biological target: T1, h5-HT1F (Homo sapiens, UniProt P30939); test: Radioligand binding assay, h5-HT1F; settings: read-out: Affinity [ki (nM)]
T1 sequence (P30939 1-366): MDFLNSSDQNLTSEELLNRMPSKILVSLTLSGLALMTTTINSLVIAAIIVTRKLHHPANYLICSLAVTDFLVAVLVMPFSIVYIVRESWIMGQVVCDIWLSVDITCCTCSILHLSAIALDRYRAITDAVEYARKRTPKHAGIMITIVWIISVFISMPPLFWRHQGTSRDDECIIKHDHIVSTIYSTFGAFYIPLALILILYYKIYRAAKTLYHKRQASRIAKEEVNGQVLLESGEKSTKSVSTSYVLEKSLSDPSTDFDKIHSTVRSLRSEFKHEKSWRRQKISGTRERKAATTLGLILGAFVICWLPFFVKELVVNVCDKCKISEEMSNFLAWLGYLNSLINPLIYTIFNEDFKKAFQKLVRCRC

[1] = test system: capsaicin-induced mechanical allodynia; test: Capsaicin test, proallodynic protocol (4 ng capsaicin, 0.25 g von Frey filament); type: in vivo, mice; settings: 10 mg/Kg s.c., 0.25 g pressure
Method: Alternatively, in some experiments, only 4 ng (instead of 1 μg) of capsaicin were injected into the paw and the pressure exerted by the filament was reduced to 0.25 g (instead of 1 g). […] This approach was used to test the possibility that treatments could exert a proallodynic effect. The FIG. 1 summarizes the two different experimental approaches carried out in this study.

5-HT7 receptors [2] = biological target: T2, 5-HT7 receptors (Homo sapiens, UniProt P34969); settings: Mahe et al., 2004; Romero et al., 2006; cited from earlier work
[3] = test system: capsaicin-induced mechanical allodynia; test: Capsaicin test, antiallodynic protocol (1 μg capsaicin, 1 g von Frey filament); settings: for dose at which the antiallodynic effect reached the maximum: s.c.
[4] = test system: sciatic nerve-ligatured rats; test: Chronic constriction injury of the sciatic nerve (CCI-SN), Randall-Sellito test
[5] = test system: infraorbital nerve-ligatured rats; test: Chronic constriction injury of the infraorbital nerve (CCI-ION), von Frey filaments
h5-HT1A = biological target: T3, h5-HT1A (Homo sapiens, UniProt P08908); test: Radioligand binding assay, h5-HT1A
T3 sequence (P08908 1-422): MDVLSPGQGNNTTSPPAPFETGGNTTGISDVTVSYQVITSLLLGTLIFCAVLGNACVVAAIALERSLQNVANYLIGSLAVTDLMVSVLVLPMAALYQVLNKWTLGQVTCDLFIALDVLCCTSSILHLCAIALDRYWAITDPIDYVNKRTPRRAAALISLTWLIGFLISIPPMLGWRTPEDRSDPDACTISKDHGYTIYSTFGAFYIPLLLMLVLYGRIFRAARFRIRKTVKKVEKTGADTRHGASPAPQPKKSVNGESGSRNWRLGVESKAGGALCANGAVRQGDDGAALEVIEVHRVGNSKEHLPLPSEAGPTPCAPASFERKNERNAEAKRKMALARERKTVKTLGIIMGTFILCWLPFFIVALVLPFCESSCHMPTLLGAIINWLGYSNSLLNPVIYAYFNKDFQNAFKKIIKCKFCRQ

h5-HT2A = h5-HT2A (Homo sapiens, UniProt P28223); test: Radioligand binding assay, h5-HT2A; settings: read-out: Affinity [ki (nM)]
[6] = test system: mechanical allodynia induced by partial sciatic nerve ligation; test: Partial sciatic nerve ligation, von Frey test (mechanical allodynia); type: in vivo, mice; settings: for effect on mechanical allodynia (von Frey pressure threshold), nerve-injured mice: days 11-13 post-injury
From the text: Mechanical allodynia was quantified by measuring the tactile threshold for hind paw withdrawal following von Frey filament stimulation. […] The filament exerted an increasing upward pressure on the plantar surface. The pressure increased linearly with time (0.1 g/s; from 0 to 5 g in 50 s) until the mouse withdrew its paw. […] A cut-off threshold of 5 g (50 s) was imposed.
The filament of 0.4 g was first used. […] This up-down procedure was stopped four measures after the first change in animal responding and the threshold of response was calculated. Clear paw withdrawal, shaking was considered as a nociceptive-like response.

[7] = test system: thermal hyperalgesia induced by partial sciatic nerve ligation; test: Partial sciatic nerve ligation, plantar test (thermal hyperalgesia)
5-HT1A = settings: Foster et al., 1995; cited from earlier work
h5-HT2B = h5-HT2B (Homo sapiens, UniProt P41595); test: Radioligand binding assay, h5-HT2B
h5-HT2C = h5-HT2C (Homo sapiens, UniProt P28335); test: Radioligand binding assay, h5-HT2C
h5-HT3 = biological target: T4, h5-HT3 (Homo sapiens, UniProt P46098); test: Radioligand binding assay, h5-HT3; settings: read-out: Affinity [ki (nM)]
T4 sequence (P46098 24-478): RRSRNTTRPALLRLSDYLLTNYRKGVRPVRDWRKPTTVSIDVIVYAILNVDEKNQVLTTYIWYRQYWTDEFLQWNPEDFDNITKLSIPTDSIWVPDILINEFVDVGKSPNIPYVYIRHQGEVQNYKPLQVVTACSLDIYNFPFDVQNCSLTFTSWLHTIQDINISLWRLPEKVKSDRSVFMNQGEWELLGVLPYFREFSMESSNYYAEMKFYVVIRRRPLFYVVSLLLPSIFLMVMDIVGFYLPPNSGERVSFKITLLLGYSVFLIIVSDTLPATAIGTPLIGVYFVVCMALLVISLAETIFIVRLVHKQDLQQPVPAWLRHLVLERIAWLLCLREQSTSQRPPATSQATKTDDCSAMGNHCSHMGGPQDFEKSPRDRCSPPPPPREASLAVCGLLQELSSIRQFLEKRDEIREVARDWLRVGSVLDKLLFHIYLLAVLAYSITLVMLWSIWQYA
Method: (§1) Binding affinities were determined in radioligand binding assays according to their standard assays protocols. In case 1, the assays included in the LeadProfilingScreen package plus 5-HT1 non-selective, 5-HT2 non-selective, 5-HT2B, 5-HT2C, 5-HT4, 5-HT5A, 5-HT6 and 5-HT7 were performed. In case 2, assays included in the High-throughput profile plus 5-HT1D, 5-HT2B, 5-HT4e were performed. For AS-19 further assays were carried out to complete its selectivity profile for serotonin receptors, including 5-HT1B, 5-HT1D, 5-HT2A and 5-HT4a.

gp5-HT4 = gp5-HT4 (Cavia porcellus, UniProt O70528); test: Radioligand binding assay, gp5-HT4; set-up: species or system guinea pig; settings: read-out: Affinity [ki (nM)]
Method: as §1

h5-HT5A = h5-HT5A (Homo sapiens, UniProt P47898); test: Radioligand binding assay, h5-HT5A; settings: read-out: Affinity [ki (nM)]
h5-HT6 = h5-HT6 (Homo sapiens, UniProt P50406); test: Radioligand binding assay, h5-HT6
h5-HT7 = h5-HT7 (Homo sapiens, UniProt P34969); test: biochemical; settings: Affinity [ki (nM)]
5-HT7 receptors [8] = biological target: T2, 5-HT7 receptors; test: cAMP measurement (HTRF) in HEK-293F cells stably expressing human 5-HT7 receptors; type: cell-based; set-up: expressed in transfected cells; host or cells: HEK-293F; settings: for EC50: HEK-293F cells, human 5-HT7, mean ± SEM

T2 sequence (P34969 whole entry): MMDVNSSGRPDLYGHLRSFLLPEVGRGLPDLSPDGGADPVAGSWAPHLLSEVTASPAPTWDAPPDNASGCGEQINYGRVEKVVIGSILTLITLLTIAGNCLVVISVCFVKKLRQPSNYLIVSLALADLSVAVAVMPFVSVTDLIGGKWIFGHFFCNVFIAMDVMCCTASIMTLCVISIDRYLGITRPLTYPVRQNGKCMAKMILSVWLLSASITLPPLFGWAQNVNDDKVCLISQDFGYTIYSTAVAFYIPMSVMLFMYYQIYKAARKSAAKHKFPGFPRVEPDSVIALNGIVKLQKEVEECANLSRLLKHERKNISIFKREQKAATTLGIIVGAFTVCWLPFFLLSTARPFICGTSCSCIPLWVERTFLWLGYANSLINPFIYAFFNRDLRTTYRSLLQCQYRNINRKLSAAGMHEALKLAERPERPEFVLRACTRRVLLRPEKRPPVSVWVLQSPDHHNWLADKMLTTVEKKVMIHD
Chain of h5-HT7 (P34969 whole entry): as above
Chain of gp5-HT4 (O70528 whole entry): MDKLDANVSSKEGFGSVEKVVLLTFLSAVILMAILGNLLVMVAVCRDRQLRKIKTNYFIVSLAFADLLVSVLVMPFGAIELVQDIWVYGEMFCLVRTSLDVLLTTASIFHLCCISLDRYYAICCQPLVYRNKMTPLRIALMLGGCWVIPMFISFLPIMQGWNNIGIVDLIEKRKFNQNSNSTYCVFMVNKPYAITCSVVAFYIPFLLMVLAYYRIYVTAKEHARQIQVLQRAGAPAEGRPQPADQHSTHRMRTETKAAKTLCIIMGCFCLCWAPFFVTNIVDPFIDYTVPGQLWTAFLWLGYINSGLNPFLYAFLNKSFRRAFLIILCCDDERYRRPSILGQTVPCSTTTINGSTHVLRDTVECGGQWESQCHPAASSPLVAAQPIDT
Chain of h5-HT2A (P28223 whole entry): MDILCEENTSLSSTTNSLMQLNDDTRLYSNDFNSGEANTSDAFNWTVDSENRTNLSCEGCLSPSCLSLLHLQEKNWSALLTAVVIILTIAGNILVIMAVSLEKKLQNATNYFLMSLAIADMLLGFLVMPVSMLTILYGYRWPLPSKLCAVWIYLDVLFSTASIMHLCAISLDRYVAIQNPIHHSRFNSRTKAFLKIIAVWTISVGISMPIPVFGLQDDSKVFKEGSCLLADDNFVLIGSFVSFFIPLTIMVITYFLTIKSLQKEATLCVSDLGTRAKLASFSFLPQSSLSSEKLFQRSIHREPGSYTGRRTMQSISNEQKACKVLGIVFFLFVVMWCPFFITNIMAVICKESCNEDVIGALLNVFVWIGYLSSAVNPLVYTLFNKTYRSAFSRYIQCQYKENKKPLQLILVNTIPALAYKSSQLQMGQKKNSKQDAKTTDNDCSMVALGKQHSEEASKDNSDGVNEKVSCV
Chain of h5-HT2C (P28335 33-458): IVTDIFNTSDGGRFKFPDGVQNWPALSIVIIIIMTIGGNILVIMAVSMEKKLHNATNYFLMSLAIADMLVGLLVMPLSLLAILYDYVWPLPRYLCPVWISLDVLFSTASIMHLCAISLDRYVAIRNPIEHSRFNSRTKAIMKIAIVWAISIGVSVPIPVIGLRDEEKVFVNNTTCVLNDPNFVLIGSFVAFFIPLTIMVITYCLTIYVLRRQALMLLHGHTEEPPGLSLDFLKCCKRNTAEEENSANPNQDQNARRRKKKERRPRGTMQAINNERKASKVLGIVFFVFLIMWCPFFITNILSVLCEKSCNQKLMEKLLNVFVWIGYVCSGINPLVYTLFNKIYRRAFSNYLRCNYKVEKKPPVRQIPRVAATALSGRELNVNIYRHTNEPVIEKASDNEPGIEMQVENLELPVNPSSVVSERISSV
Chain of h5-HT6 (P50406 whole entry): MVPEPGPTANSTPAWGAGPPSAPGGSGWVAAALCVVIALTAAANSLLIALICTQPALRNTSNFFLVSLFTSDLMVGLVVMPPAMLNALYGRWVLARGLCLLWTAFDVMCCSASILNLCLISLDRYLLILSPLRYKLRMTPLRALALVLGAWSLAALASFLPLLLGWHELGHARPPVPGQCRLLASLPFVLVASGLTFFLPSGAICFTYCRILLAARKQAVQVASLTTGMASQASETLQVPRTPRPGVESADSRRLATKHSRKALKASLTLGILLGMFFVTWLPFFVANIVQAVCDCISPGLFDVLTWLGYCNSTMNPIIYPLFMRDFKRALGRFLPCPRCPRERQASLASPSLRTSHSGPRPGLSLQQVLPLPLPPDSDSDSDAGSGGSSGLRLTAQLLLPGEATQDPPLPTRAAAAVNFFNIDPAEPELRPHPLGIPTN
Chain of h5-HT2B (P41595 whole entry): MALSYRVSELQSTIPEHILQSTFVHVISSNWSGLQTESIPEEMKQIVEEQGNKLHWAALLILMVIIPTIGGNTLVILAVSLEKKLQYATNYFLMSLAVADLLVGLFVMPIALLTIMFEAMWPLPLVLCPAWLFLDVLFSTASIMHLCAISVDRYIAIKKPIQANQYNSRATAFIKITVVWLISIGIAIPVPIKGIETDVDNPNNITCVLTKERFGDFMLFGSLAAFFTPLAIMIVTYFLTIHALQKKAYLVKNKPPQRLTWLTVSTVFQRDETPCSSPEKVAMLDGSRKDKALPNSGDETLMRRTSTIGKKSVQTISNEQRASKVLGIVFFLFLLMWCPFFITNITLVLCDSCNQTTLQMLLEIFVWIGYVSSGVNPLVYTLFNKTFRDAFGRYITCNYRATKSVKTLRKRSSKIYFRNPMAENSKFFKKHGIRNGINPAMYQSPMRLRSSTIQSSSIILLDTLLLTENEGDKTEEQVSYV
Chain of h5-HT5A (P47898 whole entry): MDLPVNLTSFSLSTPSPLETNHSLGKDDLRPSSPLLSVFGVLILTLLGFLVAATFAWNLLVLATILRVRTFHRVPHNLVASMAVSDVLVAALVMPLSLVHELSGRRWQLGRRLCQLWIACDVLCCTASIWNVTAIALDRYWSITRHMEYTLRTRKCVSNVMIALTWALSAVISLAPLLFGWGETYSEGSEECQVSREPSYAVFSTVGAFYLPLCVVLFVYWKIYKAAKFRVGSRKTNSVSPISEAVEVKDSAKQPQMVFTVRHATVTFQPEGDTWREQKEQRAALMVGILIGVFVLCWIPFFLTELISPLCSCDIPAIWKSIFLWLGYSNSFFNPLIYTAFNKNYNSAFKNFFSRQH

Ki (h5-HT1F): > 1000 nM
Compound: CC1CCN(CC[C@H]2CCCN2S(=O)(=O)c2cccc(O)c2)CC1 [SB-269970, (R)-3-(2-(2-(4-Methylpiperidin-1-yl)ethyl)pyrrolidine-1-sulfonyl)phenol]
proallodynic effect (paw withdrawal latency) [1]: allodynia was evidenced | functionality at 5-HT7 receptor as described (5-HT7 receptors [2]): inverse agonist | effect on capsaicin-induced mechanical allodynia ([3]; 10 mg/kg s.c., alone, 1 g filament): did not modify paw withdrawal latencies | effect on the antiallodynic effect of AS-19 when co-administered ([3]; SB-269970 10 mg/kg + AS-19 5 mg/kg s.c.): blocked the antiallodynic effect of the agonist | effect on AS 19-induced anti-hyperalgesia/anti-allodynia ([4]; antagonist i.p., AS-19 s.c., sciatic nerve-ligated rats): Blockade | effect on 5a-MSD-induced anti-hyperalgesia/anti-allodynia ([5]; antagonist i.p., 5a-MSD s.c., infraorbital nerve-ligated rats): Blockade | effect on AS 19-induced anti-hyperalgesia/anti-allodynia ([5]; antagonist i.p., AS-19 s.c., infraorbital nerve-ligated rats): Blockade

Compound: CN(C)CCSc1cccc(-c2ccccc2)n1 [MSD-5a, 2-(6-phenylpyridin-2-ylthio)-N,N-dimethylethanamine]
Ki (h5-HT1A; h5-HT1A, read-out: Affinity [ki (nM)]): 16 nM | Ki (h5-HT2A): 320 nM | effect on mechanical allodynia (von Frey pressure threshold), nerve-injured mice ([6]; 0.3 mg/kg s.c.): ineffective | effect on mechanical allodynia (von Frey pressure threshold), nerve-injured mice ([6]; 1 and 3 mg/kg s.c.): significantly inhibited mechanical allodynia; also recorded: restored thresholds of the nociceptive withdrawal response of nerve-injured paws to baseline pre-injury values | persistence of the antiallodynic effect after treatment ([6]; post-treatment thresholds, day 14 post-injury): disappeared the following day after last administration of MSD-5a | effect on nociceptive threshold in sham-operated mice ([6]; sham-operated, s.c., over the doses tested): did not produce any effects | effect on thermal hyperalgesia (paw withdrawal latency), nerve-injured mice ([7]; 0.3 mg/kg s.c.): did not exert analgesic (antihyperalgesic) effect | effect on thermal hyperalgesia (paw withdrawal latency), nerve-injured mice ([7]; 1 and 3 mg/kg s.c., days 11-13 post-injury): increased the withdrawal latency of nerve-injured paws to levels indistinguishable from control baseline pre-injury values | effect on thermal withdrawal latency in sham-operated mice ([7]; sham-operated, s.c.): had no effects | effect on capsaicin-induced mechanical allodynia (paw withdrawal latency vs vehicle) ([3]; 3, 10 and 30 mg/kg s.c., 1 g filament): increased the latencies of nociceptive paw withdrawal responses | effect on capsaicin-induced mechanical allodynia (paw withdrawal latency) ([3]; mice, 1 g filament, s.c. 30 min before capsaicin, over the doses tested): restored the nociceptive response of capsaicin-sensitized mice to baseline values | dose at which the antiallodynic effect reached the maximum ([3]; 1 g filament): 10 mg/kg | effect on mechanical nociceptive thresholds in sciatic nerve-ligatured rats ([4]; s.c., paw withdrawal and vocalization thresholds): clear-cut antihyperalgesic effects | effect on response threshold (mechanical allodynia) in infraorbital nerve-ligatured rats ([5]; s.c., von Frey filaments, ipsilateral vibrissal territory): clearly increased the threshold

Compound: COc1ccccc1N1CCN(CCN(C(=O)C2CCCCC2)c2ccccn2)CC1 [WAY-100635, N-(2-(4-(2-methoxyphenyl)-1-piperazinyl)ethyl)-N-(2-pyridinyl)cyclohexane carboxamide]
ID50 for block of 5-HT1A-mediated effects induced by 8-OH-DPAT (5-HT1A): 0.01 mg/kg | effect on capsaicin-induced mechanical allodynia ([3]; 0.1 and 0.3 mg/kg s.c., 1 g filament): unaffected | effect on capsaicin-induced mechanical allodynia ([3]; 0.5 and 1 mg/kg s.c., 1 g filament): significant increase in paw withdrawal latency | effect on the antiallodynic effect of AS-19 when co-administered ([3]; AS-19 at 5 and 10 mg/kg, WAY-100635 0.3 mg/kg or SB-258719 5 mg/kg s.c.): unaffected | effect on the antiallodynic effect of F-13640 when co-administered ([3]; WAY-100635 0.3 mg/kg + F-13640 1 mg/kg s.c.): blocked this antiallodynic effect

Compound: Cc1ccc(CNCC2(F)CCN(C(=O)c3ccc(F)c(Cl)c3)CC2)nc1 [F-13640, (3-Chloro-4-fluoro-phenyl)-[4-fluoro-4-{[(5-methyl-pyridin-2-ylmethyl)-amino]-methyl}piperidin-1-yl]methanone]
effect on capsaicin-induced mechanical allodynia ([3]; 1 mg/kg s.c., 1 g filament): inhibited

Compound: Cc1nn(C)c(C)c1-c1cccc2c1CC[C@H](N(C)C)C2 [AS-19]
Ki (h5-HT1A): 89.7 nM | Ki (h5-HT2B): > 1000 nM | Ki (h5-HT2C): > 1000 nM | Ki (h5-HT3): > 1000 nM | Ki (gp5-HT4): > 1000 nM | Ki (h5-HT5A): 98.5 nM | Ki (h5-HT6): > 1000 nM | Ki (h5-HT7): 0.605 nM and 0.6 nM | EC50 (5-HT7 receptors [8]; EC50 (nM), cAMP concentration-response curves): 8.87 ± 0.57 nM | Emax (5-HT7 receptors [8]; HEK293F): 77 ± 2.3% | EC50 (5-HT7 receptors [8]; pEC50, cAMP concentration-response curves): 8.71 nM | dose at which the antiallodynic effect reached the maximum ([3]; 1 g filament): 10 mg/kg
